According to patent US20250313533A1, “QUINOLINE CARBOXYLIC ACID ESTER COMPOUND AND PREPARATION METHOD AND USE THEREOF” (priority 2019, published 2025):

Experiments:
[1] = test system: stem rot in sweet potatoes; assay: whole plant or invertebrate; settings: read-out: efficacy against stem rot in sweet potatoes
black shank in potatoes = assay: Living crops in vivo protective activity, potatoes (root irrigation); settings: Solanum tuberosum, read-out: efficacy against black shank in potatoes; for pest or weed control at 5 ppm: dosage 5 ppm; for pest or weed control at 10 ppm: dosage 10 ppm
Experimental: Root irrigation was carried out on the potatoes for tests according to the designed concentration of the agents. The dosage for each plant was 200 mL and was kept consistent (also for the control). The black shank bacteria were inoculated on the second day after the application. The results were investigated according to the disease condition.

[2] = test system: fruit blotch in watermelons; assay: whole plant or invertebrate; settings: read-out: efficacy against fruit blotch in watermelons
[3] = test system: bacterial wilt in tobacco; assay: whole plant or invertebrate; settings: Nicotiana tabacum, read-out: efficacy against bacterial wilt in tobacco
[4] = test system: pathogenic bacteria causing black rot in Chinese cabbages; assay: In vitro bactericidal activity, black rot in Chinese cabbages; assay type: cell-based, xanthomonas; settings: Xanthomonas, read-out: inhibitory rate; for inhibition at 1 ppm: dosage 1 ppm; for inhibition at 5 ppm: dosage 5 ppm
Experimental: (§1) Under aseptic conditions, equal amounts of NB culture medium were added to test tubes, and fixed amounts of the sample solutions were pipetted into the above test tubes in an ascending order of concentrations, respectively. The mixtures were well mixed and added with equal amounts of a bacterial suspension in log phase.
(§2) Each step of the procedure was repeated 4 times. After mixing, the mixture samples were incubated in the dark in a shaking incubator at 25° C. The OD values were measured when the bacteria were in log phase.

bacterial blight in rice = assay: whole plant or invertebrate; settings: Oryza sativa, read-out: efficacy against bacterial blight in rice
[5] = test system: pathogenic bacteria causing bacterial angular leaf spot in cucumbers; assay: In vitro bactericidal activity, bacterial angular leaf spot in cucumbers; assay type: cell-based, pseudomonas; settings: read-out: inhibitory rate; for inhibition at 1 ppm: dosage 1 ppm; for inhibition at 5 ppm: dosage 5 ppm
Experimental: as §1, §2

[6] = test system: pathogenic bacteria causing bacterial wilt in tobacco; assay: whole plant or invertebrate; assay type: cell-based, ralstonia; settings: read-out: inhibitory rate
cucumber seedlings = assay: Safety for plant growth after application; assay type: in vivo; settings: dosage 200 ppm
From the text: Taking indoor potted cucumber seedlings as an example, the influence of the compound disclosed herein on growth rate of plant height, chlorophyll content, leaf area, etc. of crops was mainly evaluated.
The results of safety and health-care effect of the compounds of the present disclosure on cucumber seedlings are shown in the following table 1: […]

[7] = test system: pathogenic bacteria causing fire blight in pears; assay: In vitro bactericidal activity, fire blight in pears; assay type: cell-based, erwinia; settings: Erwinia, read-out: inhibitory rate; for inhibition at 1 ppm: dosage 1 ppm; for inhibition at 5 ppm: dosage 5 ppm
Experimental: as §1, §2

[8] = test system: soft rot in Chinese cabbages; assay: whole plant or invertebrate; settings: 48 h, read-out: efficacy against soft rot in Chinese cabbages
[9] = test system: pathogenic bacteria causing black shank in potatoes; assay: In vitro bactericidal activity, black shank in potatoes; assay type: cell-based; settings: read-out: inhibitory rate; for inhibition at 1 ppm: dosage 1 ppm; for inhibition at 5 ppm: dosage 5 ppm
Experimental: as §1, §2

[10] = test system: pathogenic bacteria causing bacterial blight in rice; assay: whole plant or invertebrate; assay type: cell-based, xanthomonas; settings: read-out: inhibitory rate
[11] = test system: pathogenic bacteria causing bacterial wilt in cassava; assay: organism not typed; assay type: cell-based; settings: read-out: inhibitory rate
[12] = test system: pathogenic bacteria causing fruit blotch in watermelons; assay: In vitro bactericidal activity, fruit blotch in watermelons; assay type: cell-based, acidovorax; settings: read-out: inhibitory rate; for inhibition at 1 ppm: dosage 1 ppm; for inhibition at 5 ppm: dosage 5 ppm
Experimental: as §1, §2

[13] = test system: pathogenic bacteria causing stem rot in sweet potatoes; assay: In vitro bactericidal activity, stem rot in sweet potatoes; assay type: cell-based, dikia; settings: read-out: inhibitory rate; for inhibition at 1 ppm: dosage 1 ppm; for inhibition at 5 ppm: dosage 5 ppm
Experimental: as §1, §2

Row | Structure (SMILES) | pest or weed control at 5 ppm [1] [%] | pest or weed control at 10 ppm [1] [%] | pest or weed control at 5 ppm (black shank in potatoes) [%] | pest or weed control at 10 ppm (black shank in potatoes) [%] | pest or weed control at 5 ppm [2] [%] | pest or weed control at 10 ppm [2] [%] | pest or weed control at 5 ppm [3] [%] | pest or weed control at 10 ppm [3] [%] | inhibition at 1 ppm [4] [%] | inhibition at 5 ppm [4] [%] | pest or weed control at 5 ppm (bacterial blight in rice) [%] | pest or weed control at 10 ppm (bacterial blight in rice) [%] | inhibition at 1 ppm [5] [%] | inhibition at 5 ppm [5] [%] | inhibition at 1 ppm [6] [%] | inhibition at 5 ppm [6] [%] | safety for plant growth (discoloration, necrosis, wilt, malformation) (cucumber seedlings) | inhibition at 1 ppm [7] [%] | inhibition at 5 ppm [7] [%] | pest or weed control at 5 ppm [8] [%] | further results
1 | O=C(OCCO)c1cn(C2CC2)c2cc(F)ccc2c1=O [Compound 194] | ≥ 90 | ≥ 90 | ≥ 80 | ≥ 90 | ≥ 90 | ≥ 90 | ≥ 90 | ≥ 90 | ≥ 80 | ≥ 90 | ≥ 80 | ≥ 90 | ≥ 80 | ≥ 90 | ≥ 80 | ≥ 90 | safe for plant growth | ≥ 80 | ≥ 90 | ≥ 80 | pest or weed control at 10 ppm [8]: ≥ 90%; inhibition at 1 ppm [9]: ≥ 80%; inhibition at 5 ppm [9]: ≥ 90%; inhibition at 1 ppm [10]: ≥ 80%; inhibition at 5 ppm [10]: ≥ 90%; inhibition at 1 ppm [11]: ≥ 80%; inhibition at 5 ppm [11]: ≥ 90%; inhibition at 1 ppm [12]: ≥ 80%; inhibition at 5 ppm [12]: ≥ 90%; inhibition at 1 ppm [13]: ≥ 80%; inhibition at 5 ppm [13]: ≥ 90%
2 | CCOc1cc2c(cc1F)c(=O)c(C(=O)OCCOC(C)C)cn2C1CC1 [Compound 300] | ≥ 90 | ≥ 90 | ≥ 90 | ≥ 90 | ≥ 90 | ≥ 90 | ≥ 90 | ≥ 90 | ≥ 90 | ≥ 90 | ≥ 90 | ≥ 90 | ≥ 90 | ≥ 90 | ≥ 90 | ≥ 90 | safe for plant growth | ≥ 90 | ≥ 90 | ≥ 90 | pest or weed control at 10 ppm [8]: ≥ 90%; inhibition at 1 ppm [9]: ≥ 90%; inhibition at 5 ppm [9]: ≥ 90%; inhibition at 1 ppm [10]: ≥ 90%; inhibition at 5 ppm [10]: ≥ 90%; inhibition at 1 ppm [11]: ≥ 90%; inhibition at 5 ppm [11]: ≥ 90%; inhibition at 1 ppm [12]: ≥ 90%; inhibition at 5 ppm [12]: ≥ 90%; inhibition at 1 ppm [13]: ≥ 90%; inhibition at 5 ppm [13]: ≥ 90%
3 | CCOCOC(=O)c1cn(C2CC2)c2cc(OCC)c(F)cc2c1=O [Compound 312] | ≥ 90 | ≥ 90 | ≥ 90 | ≥ 90 | ≥ 90 | ≥ 90 | ≥ 90 | ≥ 90 | ≥ 90 | ≥ 90 | ≥ 80 | ≥ 90 | ≥ 90 | ≥ 90 | ≥ 90 | ≥ 90 | safe for plant growth | ≥ 90 | ≥ 90 | ≥ 90 | pest or weed control at 10 ppm [8]: ≥ 90%; inhibition at 1 ppm [9]: ≥ 90%; inhibition at 5 ppm [9]: ≥ 90%; inhibition at 1 ppm [10]: ≥ 80%; inhibition at 5 ppm [10]: ≥ 90%; inhibition at 1 ppm [11]: ≥ 90%; inhibition at 5 ppm [11]: ≥ 90%; inhibition at 1 ppm [12]: ≥ 90%; inhibition at 5 ppm [12]: ≥ 90%; inhibition at 1 ppm [13]: ≥ 90%; inhibition at 5 ppm [13]: ≥ 90%
4 | COCCOC(=O)c1cn(C2CC2)c2cc(OC)ccc2c1=O [Compound 353] | ≥ 90 | ≥ 90 | ≥ 80 | ≥ 90 | ≥ 90 | ≥ 90 | ≥ 90 | ≥ 90 | ≥ 80 | ≥ 90 | ≥ 80 | ≥ 90 | ≥ 80 | ≥ 90 | ≥ 80 | ≥ 90 | safe for plant growth | ≥ 80 | ≥ 90 | ≥ 80 | pest or weed control at 10 ppm [8]: ≥ 90%; inhibition at 1 ppm [9]: ≥ 80%; inhibition at 5 ppm [9]: ≥ 90%; inhibition at 1 ppm [10]: ≥ 80%; inhibition at 5 ppm [10]: ≥ 90%; inhibition at 1 ppm [11]: ≥ 80%; inhibition at 5 ppm [11]: ≥ 90%; inhibition at 1 ppm [12]: ≥ 80%; inhibition at 5 ppm [12]: ≥ 90%; inhibition at 1 ppm [13]: ≥ 80%; inhibition at 5 ppm [13]: ≥ 90%
5 | O=C(OCCO)c1cn(C2CC2)c2cc(OCC(F)(F)F)ccc2c1=O [Compound 360] | ≥ 90 | ≥ 90 | ≥ 80 | ≥ 90 | ≥ 90 | ≥ 90 | ≥ 90 | ≥ 90 | ≥ 80 | ≥ 90 | ≥ 80 | ≥ 90 | ≥ 80 | ≥ 90 | ≥ 80 | ≥ 90 | safe for plant growth | ≥ 80 | ≥ 90 | ≥ 80 | pest or weed control at 10 ppm [8]: ≥ 90%; inhibition at 1 ppm [9]: ≥ 80%; inhibition at 5 ppm [9]: ≥ 90%; inhibition at 1 ppm [10]: ≥ 80%; inhibition at 5 ppm [10]: ≥ 90%; inhibition at 1 ppm [11]: ≥ 80%; inhibition at 5 ppm [11]: ≥ 90%; inhibition at 1 ppm [12]: ≥ 80%; inhibition at 5 ppm [12]: ≥ 90%; inhibition at 1 ppm [13]: ≥ 80%; inhibition at 5 ppm [13]: ≥ 90%
6 | CSc1cc2c(cc1F)c(=O)c(C(=O)OCCO)cn2C1CC1 [Compound 371] | ≥ 90 | ≥ 90 | ≥ 90 | ≥ 90 | ≥ 90 | ≥ 90 | ≥ 90 | ≥ 90 | ≥ 90 | ≥ 90 | ≥ 90 | ≥ 90 | ≥ 90 | ≥ 90 | ≥ 90 | ≥ 90 | safe for plant growth | ≥ 90 | ≥ 90 | ≥ 90 | pest or weed control at 10 ppm [8]: ≥ 90%; inhibition at 1 ppm [9]: ≥ 90%; inhibition at 5 ppm [9]: ≥ 90%; inhibition at 1 ppm [10]: ≥ 90%; inhibition at 5 ppm [10]: ≥ 90%; inhibition at 1 ppm [11]: ≥ 90%; inhibition at 5 ppm [11]: ≥ 90%; inhibition at 1 ppm [12]: ≥ 90%; inhibition at 5 ppm [12]: ≥ 90%; inhibition at 1 ppm [13]: ≥ 90%; inhibition at 5 ppm [13]: ≥ 90%
